Values of other authors in patent US11096902B1, “Transdermal film formulations and methods of use” (King Abdulaziz University, priority 2021, dated 2021).

Conditions: oral, with food

reduction of systemic availability by concomitant intake of food: 25%
Structure (SMILES): CC(C)c1c(C(=O)Nc2ccccc2)c(-c2ccccc2)c(-c2ccc(F)cc2)n1CC[C@@H](O)C[C@@H](O)CC(=O)[O-].CC(C)c1c(C(=O)Nc2ccccc2)c(-c2ccccc2)c(-c2ccc(F)cc2)n1CC[C@@H](O)C[C@@H](O)CC(=O)[O-].[Ca+2] [ATC, Atorvastatin calcium]
